According to article PMC4920590, “GPR142 Controls Tryptophan-Induced Insulin and Incretin Hormone Secretion to Improve Glucose Metabolism” (PLoS ONE, 2016):
Values belong to the compound of their own block, whether it stands above or below them.

Columns and labels:
[1] = target: T1, human GPR142 (Homo sapiens, UniProt Q7Z601); experiment: IP-1 accumulation assay in HEK293 cells stably expressing human GPR142; type: cell-based; details: for Emax: HEK293, relative efficacy normalized to maximal response of L-Tryptophan (100%), read-out: HEK293-hGPR142 Emax; for EC50: IP-1 accumulation, 1 hour, 170 nM to 30 mM, read-out: HEK293-hGPR142 EC50; for HEK293-hGPR142 EC50 (Emax): activity call, tested 170 nM to 30 mM; for IP-1 accumulation in HEK-hGPR142 cells: Fig 1A, 1B
T1 construct: expressed in transfected cells
T1 sequence (Q7Z601 1-374 isoform Q7Z601-2): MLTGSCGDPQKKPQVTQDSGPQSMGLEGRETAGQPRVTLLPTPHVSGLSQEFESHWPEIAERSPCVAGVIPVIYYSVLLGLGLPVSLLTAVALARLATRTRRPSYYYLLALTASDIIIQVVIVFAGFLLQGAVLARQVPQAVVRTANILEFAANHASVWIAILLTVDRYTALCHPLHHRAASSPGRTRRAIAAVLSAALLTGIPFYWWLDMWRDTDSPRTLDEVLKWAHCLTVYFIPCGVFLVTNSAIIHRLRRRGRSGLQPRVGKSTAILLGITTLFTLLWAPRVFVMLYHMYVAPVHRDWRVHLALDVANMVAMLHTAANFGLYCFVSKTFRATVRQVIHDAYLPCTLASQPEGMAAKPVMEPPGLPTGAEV
Method: (§1) HEK293 cells obtained from ATCC were used to generate cell lines stably expressing human GPR142 or mouse Gpr142 by transfecting cells with pcDNA3.1 expression vectors containing each cDNA. Cells expanded from single clones were maintained in DMEM containing 10% fetal bovine serum (FBS) and 800 μg/ml G418. Untransfected control HEK293 cells were maintained in DMEM containing 10% FBS. Cells were plated in 384 well plates at 5000 cells per well and allowed 18 hours for attachment. After addition of compounds, cells were incubated for 1 hour. IP-1 measurements were performed using an HTRF assay kit (Cisbio) according to manufacturer’s protocol using assay buffer containing 1 × HBSS (Hank’s Balanced Salt Solution, +Ca, +Mg), 0.1% bovine serum albumin (BSA), 50 mM LiCl and 20 mM HEPES (4-(2-hydroxyethyl)-1-piperazineethanesulfonic acid), pH 7.2. The reaction was stopped by addition of IP1-d2 followed by cryptate solution and the plates were incubated at 25°C for 1 hour. Fluorescence was read in an Envision instrument at 665 nm and 620 nm. The ratio of 665 nm/620 nm was calculated and converted to IP-1 levels using a standard curve method. The data was fit to 4-parameter fit logistics to determine EC50 values.

[2] = target: T2, mouse GPR142 (Mus musculus, UniProt Q7TQN9); experiment: IP-1 accumulation assay in HEK293 cells stably expressing mouse Gpr142; type: cell-based; details: for Emax: HEK293, relative efficacy normalized to maximal response of L-Tryptophan (100%), read-out: HEK293-mGPR142 Emax; for EC50: IP-1 accumulation, 1 hour, 170 nM to 30 mM, read-out: HEK293-mGPR142 EC50
T2 sequence (Q7TQN9 67-365 limits assumed): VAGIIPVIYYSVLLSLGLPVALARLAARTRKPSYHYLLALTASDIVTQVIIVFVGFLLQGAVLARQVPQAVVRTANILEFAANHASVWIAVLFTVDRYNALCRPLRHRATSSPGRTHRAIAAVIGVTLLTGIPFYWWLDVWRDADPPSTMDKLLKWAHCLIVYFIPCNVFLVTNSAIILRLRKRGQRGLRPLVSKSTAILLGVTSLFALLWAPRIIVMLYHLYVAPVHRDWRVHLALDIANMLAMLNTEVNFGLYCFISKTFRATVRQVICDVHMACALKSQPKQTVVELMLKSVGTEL
Method: as §1

[3] = Plasma insulin and incretin hormone levels after oral dosing in mice; type: in vivo, mouse; details: for GIP release in Gpr142 KO mice / insulin release in Gpr142 KO mice / plasma GLP-1 in Gpr142 KO mice: 500 mg/kg p.o., 10 minutes after dosing, vs WT
Method: (§2) Mice were fasted overnight and allowed free access to water. […] Tail blood glucose levels were measured at indicated time points using handheld glucometers. For incretin hormone measurements, blood was collected via cardiac bleeds into EDTA-tubes containing DPP-4 inhibitor (Millipore) and protease inhibitor cocktail (Thermo Fisher). For insulin measurements during GTT, blood was collected from the tail.
Immunoassays were used to measure total GIP (Millipore, ELISA), total GLP-1, and insulin (Meso Scale Discovery). Enzymatic assays were used to measure TG, beta-hydroxybutarate (Sigma-Aldrich), and total cholesterol (Thermo Fisher). HDL-cholesterol was determined in the supernatant after removal of LDL/vLDL-cholesterol by a precipitation reagent (Sigma-Aldrich); non-HDL-cholesterol was determined by subtracting HDL from total cholesterol. Free fatty acids were measured by GC-MS.

[4] = Glucose tolerance test (IPGTT/OGTT) after oral dosing in mice; type: in vivo, mouse; details: for glucose excursion during IPGTT in Gpr142 KO mice / glucose excursion during IPGTT in WT mice: 500 mg/kg p.o. 15 minutes prior to glucose 2 g/kg i.p.
Method: as §2

[5] = tested on: murine pancreatic islets; experiment: Insulin secretion in isolated murine pancreatic islets (WT and Gpr142 KO); type: cell-based, mouse; details: 11.1 mM glucose, 1 hour
Method: Secretion was stopped by refrigerating the plates at 4°C for 3 minutes. Supernatant was removed from the wells and assayed for insulin levels using the MA6000 Mouse/Rat Insulin Kit (Meso Scale Discovery).

[6] = tested on: human pancreatic islets; experiment: Insulin secretion in isolated human pancreatic islets; type: cell-based; details: 11 mM glucose, 1 hour, non-diabetic donor
Text: Human pancreatic islets were purchased from Prodo Labs at the Scharp-Lacy Research Institute (Irvine, CA, www.prodolabs.com) through the Integrated Islet Distribution Program in accordance with internal review board (IRB) ethical guidelines for use of human tissue. Islets were isolated at Prodo Labs from human pancreata from listed cadaver organ donors that were refused for primary human pancreas transplantation or isolated islets transplantion into listed diabetic recipients. […] The next day day islets were incubated for 30 min in EBSS buffer containing 0.1% BSA and 3 mM glucose. […] Islets were cultured for 60 min at 37°C. The incubation was stopped by chilling the samples on ice. The culture media was removed and stored at -20°C until its insulin concentration was measured. Insulin was measured using a custom built immunoassay (Meso Scale Discovery).

[7] = tested on: untransfected control HEK293 cells; experiment: IP-1 accumulation in untransfected control HEK293 cells; type: cell-based; details: Fig 1B
Method: as §1

[8] = tested on: Free Fatty Acid Receptor 1 (FFAR1, GPR40); design: method as in PMID 21752941; details: preclinical models; cited from earlier work
[9] = design: method as in PMID 25787200; details: humans, phase III study; cited from earlier work
[10] = 150 or 500 mg/kg p.o., overnight fasted normal C57 male mice
[11] = 500 mg/kg p.o. 15 minutes prior to glucose 2 g/kg p.o.

HEK293-hGPR142 EC50 (Emax) [1]: Inactive
SMILES: O=C(O)[C@@H]1CCCN1 [L-Proline]

HEK293-hGPR142 EC50 (Emax) [1]: Inactive
SMILES: N[C@@H](CO)C(=O)O [L-Serine]

HEK293-hGPR142 EC50 (Emax) [1]: Inactive
SMILES: C[C@@H](O)[C@H](N)C(=O)O [L-Threonine]

Emax [1]: 14%
EC50 [1]: 16 mM
SMILES: N[C@@H](Cc1ccc(O)cc1)C(=O)O [L-Tyrosine]

HEK293-hGPR142 EC50 (Emax) [1]: Inactive
SMILES: CC(C)[C@H](N)C(=O)O [L-Valine]

The remaining lines, values behind:

SMILES: Nc1ccccc1C(=O)C[C@H](N)C(=O)O [L-Kynurenine]
Emax [1]: 18%
EC50 [1]: 12 mM

SMILES: CC(C)C[C@H](N)C(=O)O [L-Leucine]
HEK293-hGPR142 EC50 (Emax) [1]: Inactive

SMILES: NCCCC[C@H](N)C(=O)O [L-Lysine]
Emax [1]: 20%
EC50 [1]: 16 mM

SMILES: CSCC[C@H](N)C(=O)O [L-Methionine]
HEK293-hGPR142 EC50 (Emax) [1]: Inactive

SMILES: N[C@@H](Cc1ccccc1)C(=O)O [L-Phenylalanine]
Emax [2]: 92%
potency on mouse GPR142 relative to L-Trp (fold less potent) ([2]; HEK293 cell-based IP-1 assay): 4 to 5 fold
EC50 [2]: 2.8 mM
GIP release in Gpr142 KO mice [3]: blunted
insulin release in Gpr142 KO mice [3]: blunted
plasma GLP-1 in Gpr142 KO mice [3]: increased GLP-1 in KO mice to a similar extent as in WT
glucose excursion during IPGTT in Gpr142 KO mice [4]: clearly present
glucose excursion during IPGTT in WT mice [4]: clearly present
insulin secretion in Gpr142 KO islets compared with WT islets [5]: not significantly different
insulin secretion in WT murine islets [5]: more modest
IP-1 accumulation in HEK-hGPR142 cells [1]: has an effect in this assay at concentrations comparable to that of L-Trp
Emax [1]: 96%
EC50 [1]: 3.5 mM

SMILES: N[C@@H](Cc1c[nH]c2ccccc12)C(=O)O [L-Tryptophan]
IP-1 accumulation in HEK-mGPR142 cells [2]: stimulated IP-1 accumulation
Emax [2]: 100%
EC50 [2]: 0.62 mM
GIP release in Gpr142 KO mice [3]: no L-Trp-dependent release
insulin release in Gpr142 KO mice [3]: no L-Trp-dependent release
plasma GLP-1 in Gpr142 KO mice [3]: increased GLP-1 in KO mice to a similar extent as in WT
time of peak plasma insulin, GIP and GLP-1 concentrations after dosing ([3]; 150 or 500 mg/kg p.o., normal C57 male mice): 5 to 10 min
plasma GIP level [3, 10]: rapidly and dose-dependently increased
plasma GLP-1 level [3, 10]: rapidly and dose-dependently increased
plasma insulin level [3, 10]: rapidly and dose-dependently increased
glucose excursion during IPGTT in Gpr142 KO mice [4]: no significant effect
glucose excursion during IPGTT in WT mice [4]: suppressed glucose excursion
glucose excursion during OGTT in Gpr142 KO mice [4, 11]: no significant effect
glucose excursion during OGTT in WT mice [4, 11]: suppressed glucose excursion
insulin secretion in human primary islets [6]: robustly stimulated insulin secretion
insulin secretion in Gpr142 KO islets compared with WT islets [5]: significantly blunted
insulin secretion in WT murine islets [5]: dose-dependently stimulated the release of insulin
IP-1 accumulation in HEK-hGPR142 cells [1]: stimulated IP-1 accumulation
Emax [1]: 100%
EC50 [1]: 2.1 mM
IP-1 accumulation in untransfected control HEK293 cells [7]: had no effect

SMILES: Cc1cc(OCCCS(C)(=O)=O)cc(C)c1-c1cccc(COc2ccc3c(c2)OC[C@H]3CC(=O)O)c1 [TAK-875]
glucose-dependent insulin secretion [8]: stimulate glucose-dependent insulin secretion
glycemic control [9]: improve glycemic control

SMILES: NCCc1c[nH]c2ccccc12 [Trytamine]
HEK293-hGPR142 EC50 (Emax) [1]: Inactive
